Data as given in PubChem BioAssay AID2060893 (Molecular Pharmacology Branch, DTP, NCI, 2025).
pIC50: −log10 of the molar value.

Test system: K86415-001-R-J1-PDC complex spheroids, viability
Experiment: Anticancer human tumor K86415-001-R-J1-PDC patient-derived lung adenocarcinoma cell line growth inhibition [RAS]
Conditions: for pIC50: curve of first compound; for viability, T/C: stronger effect = lower value
In short: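 Agents were tested in combination matrices in half-log decrements from a top concentration at or near clinical Cmax (10 microM if undetermined). Targets were multi-cell spheroids of tumour lines plus HUVEC and MSC stromal cells.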

[1] = second compound 0.00316 µM, first compound 0.0316 µM
[2] = second compound 0.00316 µM, first compound 0.1 µM
[3] = second compound 0.00316 µM, first compound 0.316 µM
[4] = second compound 0.00316 µM, first compound 1 µM
[5] = second compound 0.00316 µM, first compound 3.16 µM
[6] = second compound 0.00316 µM, first compound 10 µM
[7] = second compound 0.01 µM, first compound 0.0316 µM
[8] = second compound 0.01 µM, first compound 0.1 µM
[9] = second compound 0.01 µM, first compound 0.316 µM
[10] = second compound 0.01 µM, first compound 1 µM
[11] = second compound 0.01 µM, first compound 3.16 µM
[12] = second compound 0.01 µM, first compound 10 µM
[13] = second compound 0.0316 µM, first compound 0.0316 µM
[14] = second compound 0.0316 µM, first compound 0.1 µM
[15] = second compound 0.0316 µM, first compound 0.316 µM
[16] = second compound 0.0316 µM, first compound 1 µM
[17] = second compound 0.0316 µM, first compound 3.16 µM
[18] = second compound 0.0316 µM, first compound 10 µM
[19] = second compound 0.1 µM, first compound 0.0316 µM
[20] = second compound 0.1 µM, first compound 0.1 µM
[21] = second compound 0.1 µM, first compound 0.316 µM
[22] = second compound 0.1 µM, first compound 1 µM
[23] = second compound 0.1 µM, first compound 3.16 µM
[24] = second compound 0.1 µM, first compound 10 µM
[25] = second compound 0.316 µM, first compound 0.0316 µM
[26] = second compound 0.316 µM, first compound 0.1 µM
[27] = second compound 0.316 µM, first compound 0.316 µM
[28] = second compound 0.316 µM, first compound 1 µM
[29] = second compound 0.316 µM, first compound 3.16 µM
[30] = second compound 0.316 µM, first compound 10 µM
[31] = second compound 1 µM, first compound 0.0316 µM
[32] = second compound 1 µM, first compound 0.1 µM
[33] = second compound 1 µM, first compound 0.316 µM
[34] = second compound 1 µM, first compound 1 µM
[35] = second compound 1 µM, first compound 3.16 µM
[36] = second compound 1 µM, first compound 10 µM
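Also: spheroids exposed to agents for seven days before readout.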

With CC(=O)OC12COC1CC(O)C1(C)C(=O)C(O)C3=C(C)C(OC(=O)C(O)C(NC(=O)OC(C)(C)C)c4ccccc4)CC(O)(C(OC(=O)c4ccccc4)C21)C3(C)C (centres undefined) + C=CC(=O)N1CCN(c2nc(OCC3CCCN3C)nc3c(F)c(-c4nc(N)cc(C)c4C(F)(F)F)c(Cl)cc23)C(C)C1 the pIC50 (second compound 0.00316 µM) was > 7.50, the pIC50 (second compound 0.01 µM) was > 7.50 and the pIC50 (second compound 0.0316 µM) was > 7.50. For the same molecule, the pIC50 (second compound 0.1 µM) was > 7.50, the pIC50 (second compound 0.316 µM) was > 7.50 and the pIC50 (second compound 1 µM) was > 7.50. The viability, T/C [1] was 15.6%, the viability, T/C [2] was 15.6% and the viability, T/C [3] was 16.5%. It also gave a viability, T/C [4] of 15.9%, a viability, T/C [5] of 15.5% and a viability, T/C [6] of 15.2%. It also gave a viability, T/C [7] of 13.9%, a viability, T/C [8] of 14.1% and a viability, T/C [9] of 12.5%. For the same molecule, the viability, T/C [10] was 13.2%, the viability, T/C [11] was 10.8% and the viability, T/C [12] was 9.16%. It also gave a viability, T/C [13] of 11.1%, a viability, T/C [14] of 10.8% and a viability, T/C [15] of 9.94%. For the same molecule, the viability, T/C [16] was 9.79%, the viability, T/C [17] was 10.3% and the viability, T/C [18] was 8.13%. The viability, T/C [19] was 9.79%, the viability, T/C [20] was 11.2% and the viability, T/C [21] was 9.84%. For the same molecule, the viability, T/C [22] was 9.57%, the viability, T/C [23] was 11.5% and the viability, T/C [24] was 9.04%. It also gave a viability, T/C [25] of 7.89%, a viability, T/C [26] of 9.45% and a viability, T/C [27] of 11.5%. For the same molecule, the viability, T/C [28] was 9.36%, the viability, T/C [29] was 10.3% and the viability, T/C [30] was 8.4%. It also gave a viability, T/C [31] of 8.13%, a viability, T/C [32] of 10.6% and a viability, T/C [33] of 12.8%. It also gave a viability, T/C [34] of 9.39%, a viability, T/C [35] of 11.2% and a viability, T/C [36] of 10.5%.

CCC(CC)c1cc(NC2CCC(N)C2)n2nccc2n1 (centres undefined) + C=CC(=O)N1CCN(c2nc(OCC3CCCN3C)nc3c(F)c(-c4nc(N)cc(C)c4C(F)(F)F)c(Cl)cc23)C(C)C1 was tested, and the pIC50 (second compound 0.00316 µM) was > 7.50, the pIC50 (second compound 0.01 µM) was > 7.50 and the pIC50 (second compound 0.0316 µM) was > 7.50. The pIC50 (second compound 0.1 µM) was > 7.50, the pIC50 (second compound 0.316 µM) was > 7.50 and the pIC50 (second compound 1 µM) was > 7.50. The viability, T/C [1] was 21.7%, the viability, T/C [2] was 20.9% and the viability, T/C [3] was 26.4%. It also gave a viability, T/C [4] of 45.6%, a viability, T/C [5] of 2.88% and a viability, T/C [6] of 3.26%. It also gave a viability, T/C [7] of 13.3%, a viability, T/C [8] of 12.7% and a viability, T/C [9] of 16.9%. The viability, T/C [10] was 23.3%, the viability, T/C [11] was 2.98% and the viability, T/C [12] was 2.44%. It also gave a viability, T/C [13] of 10.7%, a viability, T/C [14] of 13.9% and a viability, T/C [15] of 11.7%. The viability, T/C [16] was 15.9%, the viability, T/C [17] was 3.17% and the viability, T/C [18] was 2.7%. It also gave a viability, T/C [19] of 10.3%, a viability, T/C [20] of 12% and a viability, T/C [21] of 12.8%. It also gave a viability, T/C [22] of 13.7%, a viability, T/C [23] of 3.12% and a viability, T/C [24] of 2.45%. For the same molecule, the viability, T/C [25] was 11.8%, the viability, T/C [26] was 14% and the viability, T/C [27] was 12%. The viability, T/C [28] was 17.7%, the viability, T/C [29] was 2.62% and the viability, T/C [30] was 3.41%. It also gave a viability, T/C [31] of 10.5%, a viability, T/C [32] of 13.1% and a viability, T/C [33] of 15.1%. It also gave a viability, T/C [34] of 14.7%, a viability, T/C [35] of 3.95% and a viability, T/C [36] of 4.47%.
